Legend:
[1] = target: T1, Phosphatidylinositol 4,5-bisphosphate 3-kinase catalytic subunit delta isoform (Homo sapiens, UniProt O00329); test: Inhibition of PI3Kdelta (unknown origin) measured by ADP-Glo assay
T1 sequence (O00329 whole entry): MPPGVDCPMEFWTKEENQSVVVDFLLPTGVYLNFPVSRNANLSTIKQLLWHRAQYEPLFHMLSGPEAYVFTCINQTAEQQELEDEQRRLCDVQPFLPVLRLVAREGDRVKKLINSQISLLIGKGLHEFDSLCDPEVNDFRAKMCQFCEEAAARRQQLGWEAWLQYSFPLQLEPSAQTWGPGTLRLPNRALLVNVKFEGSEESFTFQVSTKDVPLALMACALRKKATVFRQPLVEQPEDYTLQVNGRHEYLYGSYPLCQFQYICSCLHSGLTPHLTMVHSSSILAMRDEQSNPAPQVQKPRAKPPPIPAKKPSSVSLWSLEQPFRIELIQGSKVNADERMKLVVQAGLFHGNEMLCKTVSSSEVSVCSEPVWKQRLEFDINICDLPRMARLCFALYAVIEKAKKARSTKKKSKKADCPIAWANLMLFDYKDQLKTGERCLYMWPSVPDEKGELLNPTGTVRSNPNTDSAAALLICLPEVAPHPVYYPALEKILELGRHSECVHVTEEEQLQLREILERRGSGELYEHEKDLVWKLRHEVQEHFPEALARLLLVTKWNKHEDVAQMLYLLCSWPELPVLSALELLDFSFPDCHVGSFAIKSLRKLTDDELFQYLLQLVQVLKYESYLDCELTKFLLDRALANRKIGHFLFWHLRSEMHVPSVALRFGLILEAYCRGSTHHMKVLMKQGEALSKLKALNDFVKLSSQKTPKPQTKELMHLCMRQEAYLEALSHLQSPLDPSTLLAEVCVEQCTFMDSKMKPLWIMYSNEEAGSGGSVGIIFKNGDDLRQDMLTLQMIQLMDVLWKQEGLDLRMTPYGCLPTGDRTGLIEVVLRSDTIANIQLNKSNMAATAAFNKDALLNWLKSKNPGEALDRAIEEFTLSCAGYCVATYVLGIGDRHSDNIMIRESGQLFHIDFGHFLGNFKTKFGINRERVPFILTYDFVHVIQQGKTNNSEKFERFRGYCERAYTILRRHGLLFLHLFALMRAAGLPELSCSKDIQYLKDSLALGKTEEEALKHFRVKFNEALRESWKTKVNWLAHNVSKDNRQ

[2] = target: T2, Protein deacetylase HDAC6 (Homo sapiens, UniProt Q9UBN7)
T2 sequence (Q9UBN7 whole entry): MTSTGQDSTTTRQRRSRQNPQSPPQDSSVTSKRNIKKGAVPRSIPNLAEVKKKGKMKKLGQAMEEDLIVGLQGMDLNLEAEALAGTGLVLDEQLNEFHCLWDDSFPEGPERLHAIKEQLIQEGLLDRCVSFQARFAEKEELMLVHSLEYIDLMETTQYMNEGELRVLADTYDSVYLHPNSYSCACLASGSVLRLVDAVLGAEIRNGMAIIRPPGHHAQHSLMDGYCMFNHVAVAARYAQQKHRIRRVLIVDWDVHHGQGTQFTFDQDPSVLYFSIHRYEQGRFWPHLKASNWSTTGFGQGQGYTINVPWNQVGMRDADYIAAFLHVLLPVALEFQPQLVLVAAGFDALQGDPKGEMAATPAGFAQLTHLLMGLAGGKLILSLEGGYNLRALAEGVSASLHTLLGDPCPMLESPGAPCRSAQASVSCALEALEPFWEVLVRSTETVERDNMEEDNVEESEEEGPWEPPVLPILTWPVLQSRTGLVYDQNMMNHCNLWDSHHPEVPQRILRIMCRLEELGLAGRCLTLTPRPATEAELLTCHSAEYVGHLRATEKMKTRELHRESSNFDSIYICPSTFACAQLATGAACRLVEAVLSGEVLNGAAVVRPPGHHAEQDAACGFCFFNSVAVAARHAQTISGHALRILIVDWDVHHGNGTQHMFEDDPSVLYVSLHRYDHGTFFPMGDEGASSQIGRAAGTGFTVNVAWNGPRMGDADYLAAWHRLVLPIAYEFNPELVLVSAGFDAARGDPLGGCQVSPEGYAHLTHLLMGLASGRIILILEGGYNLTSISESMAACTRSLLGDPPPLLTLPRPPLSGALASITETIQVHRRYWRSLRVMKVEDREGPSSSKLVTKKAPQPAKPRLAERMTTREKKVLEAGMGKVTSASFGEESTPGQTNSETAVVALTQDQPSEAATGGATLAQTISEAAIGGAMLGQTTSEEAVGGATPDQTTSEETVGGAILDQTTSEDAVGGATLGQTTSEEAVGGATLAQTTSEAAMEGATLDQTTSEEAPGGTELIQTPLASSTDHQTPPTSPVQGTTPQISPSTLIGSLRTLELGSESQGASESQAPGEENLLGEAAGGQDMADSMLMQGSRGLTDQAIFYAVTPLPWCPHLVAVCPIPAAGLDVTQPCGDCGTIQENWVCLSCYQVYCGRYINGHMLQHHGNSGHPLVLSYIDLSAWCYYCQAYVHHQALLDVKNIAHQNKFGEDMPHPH
Description: Inhibition of HDAC6 (unknown origin) measured by fluorescence based assay

Histone deacetylase 1 = Histone deacetylase 1 (Homo sapiens, UniProt Q13547)
Sequence of Histone deacetylase 1 (Q13547 whole entry): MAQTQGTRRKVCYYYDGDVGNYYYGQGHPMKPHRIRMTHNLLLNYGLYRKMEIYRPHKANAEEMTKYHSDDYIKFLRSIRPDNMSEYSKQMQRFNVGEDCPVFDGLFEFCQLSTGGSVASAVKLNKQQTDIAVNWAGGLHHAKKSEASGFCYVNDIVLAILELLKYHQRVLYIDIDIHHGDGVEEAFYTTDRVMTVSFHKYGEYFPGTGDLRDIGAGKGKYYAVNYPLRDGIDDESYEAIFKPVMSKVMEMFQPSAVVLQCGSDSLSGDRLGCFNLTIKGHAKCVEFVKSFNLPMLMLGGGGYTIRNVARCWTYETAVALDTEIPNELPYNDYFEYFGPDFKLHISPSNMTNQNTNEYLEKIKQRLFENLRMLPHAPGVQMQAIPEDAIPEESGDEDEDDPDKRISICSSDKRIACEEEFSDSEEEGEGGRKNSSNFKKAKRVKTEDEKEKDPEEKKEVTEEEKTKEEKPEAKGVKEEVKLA
Description: Inhibition of HDAC1 (unknown origin) measured by fluorescence based assay

KM12 = test: Antiproliferative activity against human KM12 cells incubated for 72 hrs by CCK-8 assay; assay type: functional, cell-based; details: KM12, 72 h
HCT-116 = test: Antiproliferative activity against human HCT-116 cells incubated for 72 hrs by CCK-8 assay; assay type: functional, cell-based; details: HCT-116, 72 h
T47D = test: Antiproliferative activity against human T47D cells incubated for 72 hrs by CCK-8 assay; assay type: functional, cell-based
SU-DHL-6 = test: Antiproliferative activity against human SU-DHL-6 cells incubated for 72 hrs by CCK-8 assay; assay type: functional, cell-based; details: SU-DHL-6, 72 h
[3] = Cytotoxicity against HUVEC cells incubated for 72 hrs by CCK-8 assay; details: human

Row | Structure (SMILES) | IC50 [1] | IC50 [2] | IC50 (Histone deacetylase 1) | also measured
1 | N#Cc1c(N)nc(N)nc1N1CCC[C@H]1c1nc(NCc2ccc(C(=O)NO)cc2)c2c(Cl)cccc2n1 |  | 0.267 µM |  | 
2 | N#Cc1c(N)nc(N)nc1N1CC2(CC2)C[C@H]1c1nc2cccc(Cl)c2c(=O)n1Cc1cc(C(=O)NO)no1 | 0.0069 µM | 0.604 µM |  | 
3 | N#Cc1c(N)nc(N)nc1N1CC2(CC2)C[C@H]1c1nc(NCCc2ccc(C(=O)NO)cc2)c2c(Cl)cccc2n1 |  | 0.219 µM |  | 
4 | N#Cc1c(N)nc(N)nc1N1C[C@@H](OC(=O)NCc2ccc(C(=O)NO)cc2)C[C@H]1c1nc2cccc(Cl)c2c(=O)n1-c1ccccc1 | 0.0068 µM | 0.168 µM |  | 
5 | N#Cc1c(N)nc(N)nc1N1CC2(CC2)C[C@H]1c1nc2cccc(Cl)c2c(=O)n1Cc1ccc(C(=O)NO)cc1 | 0.0061 µM | 0.331 µM |  | 
6 | N#Cc1c(N)nc(N)nc1N1C[C@H](OC(=O)NCc2ccc(C(=O)NO)cc2)C[C@H]1c1nc2cccc(F)c2c(=O)n1-c1ccccc1 | 0.024 µM |  |  | 
7 | CC[C@H](Nc1ncnc2[nH]cnc12)c1nc2cccc(F)c2c(=O)n1-c1ccccc1 [IDELALISIB] |  |  |  | IC50 (KM12): 0.96 µM; IC50 (HCT-116): 2.96 µM; IC50 (T47D): 0.51 µM; IC50 (SU-DHL-6): 0.053 µM; IC50 at 72 h [3]: 38.2 µM
8 | N#Cc1c(N)nc(N)nc1N1CC2(CC2)C[C@H]1c1nc(NCc2ccc(C(=O)NO)cc2)c2c(Cl)cccc2n1 |  | 0.398 µM |  | 
9 | O=C(CCCCCCNC(=O)c1cnc(N(c2ccccc2)c2ccccc2)nc1)NO [RICOLINOSTAT] |  |  |  | IC50 (KM12): 2.15 µM; IC50 (HCT-116): 1.85 µM; IC50 (T47D): 0.71 µM; IC50 (SU-DHL-6): 0.83 µM; IC50 at 72 h [3]: 13.6 µM
10 | N#Cc1c(N)nc(N)nc1N1CCC[C@H]1c1nc2cccc(Cl)c2c(=O)n1Cc1ccc(C(=O)NO)cc1 |  | 0.28 µM |  | 

Further compounds by falling IC50 [2], results first:

Row | IC50 [1] | IC50 [2] | IC50 (Histone deacetylase 1) | Structure (SMILES) | also measured
12 | 0.036 µM | 0.121 µM | 0.085 µM | CC[C@H](Nc1ncnc2[nH]cnc12)c1nc2cccc(F)c2c(=O)n1CCCCCC(=O)NO | 
13 | 0.0016 µM | 0.087 µM | 0.271 µM | N#Cc1c(N)nc(N)nc1N1C[C@H](OC(=O)NCc2ccc(C(=O)NO)cc2)C[C@H]1c1nc2cccc(Cl)c2c(=O)n1-c1ccccc1 | 
14 |  | 0.067 µM | 0.111 µM | N#Cc1c(N)nc(N)nc1N1CCC[C@H]1c1nc2cccc(Cl)c2c(=O)n1Cc1ccc(C(=O)NO)s1 | 
15 |  | 0.066 µM | 0.214 µM | C[C@H](Nc1nc(N)nc(N)c1C#N)c1nc2cccc(Cl)c2c(=O)n1Cc1ccc(C(=O)NO)s1 | 
16 | 0.099 µM | 0.045 µM | 0.244 µM | CC[C@H](Nc1ncnc2[nH]cnc12)c1nc2cccc(F)c2c(=O)n1Cc1ccc(C(=O)NO)cc1 | 
17 |  | 0.045 µM | 0.198 µM | CC[C@H](Nc1nc(N)nc(N)c1C#N)c1nc2cccc(Cl)c2c(=O)n1Cc1ccc(C(=O)NO)s1 | 
18 | 0.016 µM | 0.043 µM | 0.182 µM | Cn1c([C@@H]2C[C@@H](OC(=O)NCc3ccc(C(=O)NO)s3)CN2c2nc(N)nc(N)c2C#N)nc2cccc(Cl)c2c1=O | 
19 | 0.022 µM | 0.036 µM | 0.288 µM | Cn1c([C@@H]2C[C@@H](OC(=O)NCCc3ccc(C(=O)NO)cc3)CN2c2nc(N)nc(N)c2C#N)nc2cccc(Cl)c2c1=O | 
20 | 0.02 µM | 0.032 µM | 0.082 µM | N#Cc1c(N)nc(N)nc1N1CC2(CC2)C[C@H]1c1nc2cccc(F)c2c(=O)n1Cc1ccc(C(=O)NO)s1 | 
21 | 0.136 µM | 0.028 µM | 0.36 µM | O=C(NO)c1ccc(Cn2c([C@@H]3CC4(CC4)CN3c3ncnc4[nH]cnc34)nc3cccc(F)c3c2=O)cc1 | 
22 | 0.033 µM | 0.027 µM | 0.287 µM | N#Cc1c(N)nc(N)nc1N1CC2(CC2)C[C@H]1c1nc2cccc(F)c2c(=O)n1Cc1ccc(C(=O)NO)cc1 | 
23 | 0.018 µM | 0.027 µM | 0.102 µM | Cn1c([C@@H]2C[C@@H](OC(=O)NCc3ccc(C(=O)NO)cc3)CN2c2nc(N)nc(N)c2C#N)nc2cccc(Cl)c2c1=O | 
24 | 0.042 µM | 0.013 µM | 0.088 µM | Cn1c([C@@H]2C[C@@H](OCc3ccc(C(=O)NO)s3)CN2c2nc(N)nc(N)c2C#N)nc2cccc(Cl)c2c1=O | 
25 | 0.075 µM | 0.013 µM | 0.072 µM | Cn1c([C@@H]2C[C@@H](OCc3ccc(C(=O)NO)cc3)CN2c2nc(N)nc(N)c2C#N)nc2cccc(Cl)c2c1=O | 
26 | 0.042 µM | 0.011 µM | 0.26 µM | CN(Cc1ccc(C(=O)NO)cc1)C(=O)O[C@@H]1C[C@@H](c2nc3cccc(Cl)c3c(=O)n2C)N(c2nc(N)nc(N)c2C#N)C1 | 

Reference: ChEMBL document CHEMBL5214954, “Identification of PI3K/HDAC Dual-targeted inhibitors with subtype selectivity as potential therapeutic agents against solid Tumors: Building HDAC6 potency in a Quinazolinone-based PI3Kδ-selective template” (Bioorg Med Chem, 2022)
